Results reported in patent US6177592A, “Compounds” (priority 1997, dated 2001).

Assays:
[1] = system: HL-60 cells; assay: MTT growth inhibition of HL-60; assay type: cell-based, human; settings: Homo sapiens, HL-60, 48 hours; for activity at 10 µM / activity at 20 µM / activity at 40 µM: read-out: degree of cell growth (ratio of absorbance at 590 nm of sample-added section to control)
Method: (2) To each of the wells of a 96-well microtiter plate was added 8, 40, 200 or 1000 μM aqueous solution of GM or 10 μl of water as a control. HL-60 (ATCC CCL-240) was suspended in an RPMI 1640 medium containing 10% of fetal calf serum to make the concentration 5×10^4 cells/ml and each 90 μl thereof was placed in each well of the above-mentioned microtiter plate and incubated at 37° C. for 48 hours in the presence of 5% carbon dioxide. Incubation was conducted for four hours more after addition of 10 μl of a solution (5 mg/ml) of 3-(4,5-dimethylthiazol-2-yl)-2,5-diphenyltetrzolium bromide (MTT; manufactured by Sigma) in a phosphate-buffered saline solution and the state of growth of the cells was observed under a microscope. Further, 100 μl of 2-propanol containing 0.04N hydrochloric acid was added followed by stirring and an absorbance at 590 nm was measured.
(3) To each well of the 96-well microtiter plate was added 100, 200 or 400 μM aqueous solution of GM or CM or 10 μl of water as a control and the inhibition activity of growth of HL-60 was measured by the same method as mentioned in Example 5-(2). The degree of cell growth was, however, expressed in terms of the ratio (%) of the absorbance at 590 nm of the sample-added section to that of the water-added section (the control).
(5) To each well of the 96-well microtiter plate was added 4.12, 12.3, 37.0, 111, 333 or 1000 μM aqueous solution of GD or 10 μl of water as a control. HL-60 (ATCC CCL-240) was suspended in an RPMI 1640 medium containing 10% of fetal calf serum to make the concentration 5×10^4 cells/ml and each 90 μl thereof was placed in each well of the above-mentioned microtiter plate followed by incubating at 37° C. for 48 hours in the presence of 5% carbon dioxide gas. The incubation was conducted for four hours more after addition of 10 μl of 5 mg/ml solution of 3-(4,5-dimethylthiazol-2-yl)-2,5-diphenyltetrazolium bromide (MTT; manufactured by Sigma) in a phosphate-buffered saline solution and the state of growth of the cells was observed under a microscope. In the meanwhile, 100 μl of 2-propanol containing 0.04N HCl was added followed by well stirring and the absorbance at 590 nm was measured.
(6) Cyclopentenone and L-cysteine hydrochloride were dissolved in a phosphate buffered saline solution (pH 7.2) to make their concentrations 55 mM and 80 mM, respectively and made to react at 37° C. for 15 minutes at pH 7.2. Apart of the reaction solution was analyzed by a reversed phase HPLC using a column of TSK gel ODS-80Ts (4.6 mm×250 mm; manufactured by Tosoh)at the flow rate of 1 ml/minute using 0.1% aqueous solution of trifluoroacetic acid as a mobile phase whereupon no cyclopentenone was detected. This reaction solution was a solution containing 55 mM of CD.
Degree of cell growth was, however, expressed in terms of the ratio (%) of the absorbance at 590 nm of the section to which the sample was added to that of the control where water was added.

[2] = system: mouse leukemia P-388; assay: Mouse leukemia P-388 survival (macrobiotic effect) in DBA/2 mice; assay type: in vivo; settings: 10 mg/kg/day i.p., five days
Method: GM was diluted with a physiological saline solution to a predetermined concentration and subjected to the following tests.
(2) Mouse leukemia P-388 (1.1×10^6 cells/mouse) was intraperitoneally injected to female DBA/2 mice (body weight: about 20 g) of seven weeks age. After that, GM, CM, GD or CD (10 mg/kg/day) was intraperitoneally injected for consecutive five clays. In the meanwhile, a physiological saline solution was intraperitoneally injected to the control group by the same manner. In the two group each consisting of eight mice, survived numbers, average survived days and macrobiotic rate of the mice were calculated.

[3] = system: heat shock protein of 70 kDa (HSP70); assay: Induction of heat shock protein of 70 kDa in HL-60; assay type: cell-based, human; set-up: key to Induction of Heat Shock Protein: -: no induction was noted; ±: the induction was slight; indicates degree of intensity of induction and the more the numbers of "+", the more the intensity of induction; ++: the more the numbers of "+", the more the intensity of induction; +++: the more the numbers of "+", the more the intensity of induction; settings: for action of inducing the heat shock protein (in words): Example 14, compared with GM and CM
Method: (1) An RPMI 1640 medium (5 ml) containing 10% of fetal bovine serum which contained 2×10^5 cells/ml of HL-60 (ATCC CCL-24C) was placed in each well of a six-well plate, incubated at 37° C. for 24 hours in the presence of 5% of CO2, then GM was added thereto to make its final concentration 0, 0.5, 1.0, 3.0, 5.0, 10.0 or 20.0 μM and the incubation was further continued for eight hours more.
After completion of the incubation, cell numbers were counted and the cells were recovered by centrifugation and washed with PBS to prepare GM-treated cells. In the meanwhile, cells which were heated at 45° C. for ten minutes followed by subjecting to the same incubation were prepared as well.
The cells treated as such were subjected to an SDS-PAGE by a method mentioned in "Molecular Cloning" [Cold Spring Harbor Laboratory Press, (1989)]. The treated cells were suspended in an SDS-PAGE sample buffer to make the concentration 2.5×10^6 cells/ml, the resulting cell suspension was treated at 100° C. for ten minutes and each 5 μl thereof was applied to two sheets of SDS-PAGE gels (5% stacking gel; 10% separation gel) to conduct an electrophoresis. One of the gels was stained with Coomassie Brilliant Blue R250 while another gel was subjected to a blotting to a polyvinylidene difluoride transfer membrane (Immobilon™, manufactured by Millipore, catalog no. IPVH000-10). The membrane was subjected to a blocking at 4° C. for one night with Block Ace (manufactured by Dainippon Pharmaceutical; catalog no. UK-B25).
The blocked membrane was made to react with monoclonal antibody HSP 72/73 (Ab-1) (manufactured by Oncogene Research Products, catalog no. HSP01) which specifically reacted with heat-induced heat shock protein of 70 kDa and washed with TBS containing 0.05% of Tween 20 followed by further washing with TBS. After that, it was made to react with peroxidase-compounded secondary antibody HRP-Rabbit Anti-Mouse IgG (H+L) (manufactured by Zymed Laboratories, catalog no. 61-6520) and washed by the same manner as in the above operation. The membranes which were treated with primary and secondary antibodies as such were made to react with Renaissance™ (a chemiluiminor reagent manufactured by Dupont NEN, catalog no. NEL-100) and photosensitized with an X-ray film to detect the induction of heat shock protein of 70 kDa.
(2) CM was added to the incubated cells to make its final concentration 0, 10, 20, 30, 40 or 50 μM and expression of HSP70 was measured by the method as mentioned in Example 14-(1).

Work on `N[C@@H](CSC1C=C(O)C(=O)C1)C(=O)O` (stereo partly shown) [CM] yielded an activity at 10 µM [1] of 48.9%, an activity at 20 µM [1] of 16.1% and an activity at 40 µM [1] of 2.8%. For the same compound, the “macrobiotic effect (average survived days)” value [2] was “significant macrobiotic effect”, the “Induction of Heat Shock Protein” value ([3]; 10 μM CM) was “+” and the “Induction of Heat Shock Protein” value ([3]; 20 μM CM) was “++”. For the same compound, the “Induction of Heat Shock Protein” value ([3]; 30 μM CM) was “++”, the “Induction of Heat Shock Protein” value ([3]; 40 μM CM) was “+” and the “Induction of Heat Shock Protein” value ([3]; 50 μM CM) was “+”. The “action of inducing the heat shock protein (in words)” value [3] was “action of inducing the heat shock protein”.

For `N[C@@H](CCC(=O)N[C@@H](CSC1C=C(O)C(=O)C1)C(=O)NCC(=O)O)C(=O)O` (stereo partly shown) [GM, 2-hydroxy-4-glutathion-S-yl-2-cyclopenten-1-one], the activity at 10 µM [1] was 14.8%, the activity at 20 µM [1] was 1.8% and the activity at 40 µM [1] was 3.2%. The IC100 ([1]; MTT, final concentration, read-out: concentration at which growth of HL-60 cells was completely inhibited) was 4 µM, the “macrobiotic effect (average survived days)” value [2] was “significant macrobiotic effect” and the “Induction of Heat Shock Protein” value ([3]; 0.5 μM GM, eight hours) was “±”. The “Induction of Heat Shock Protein” value ([3]; 1.0 μM GM, eight hours) was “±”, the “Induction of Heat Shock Protein” value ([3]; 3.0 μM GM, eight hours) was “+” and the “Induction of Heat Shock Protein” value ([3]; 5.0 μM GM, eight hours) was “+”. For the same compound, the “Induction of Heat Shock Protein” value ([3]; 10 μM GM, eight hours) was “++”, the “Induction of Heat Shock Protein” value ([3]; 20 μM GM, eight hours) was “++” and the “action of inducing the heat shock protein (in words)” value [3] was “action of inducing the heat shock protein”.
